Reference: patent publication US8716281B2, “Pyrimidine compounds that inhibit anaplastic lymphoma kinase” (Amgen Inc., priority 2010, dated 2014)

molecular target: T1, wild-type human ALK cytoplasmic domain (amino acids 1058-1620) (Homo sapiens, UniProt Q9UM73); experiment: ALK Inhibition in Enzyme Assay (Lance TR-FRET); assay type: biochemical; conditions: 2 nM enzyme, ATP at 40 μM (Km apparent), 90 minutes, mean of three replicates; read-out: ALK IC50
T1 construct: The cytoplasmic domain (amino acids 1058-1620) of wild-type human ALK; GST (N); made in house; host or cells: SF9 insect cells
T1 sequence (Q9UM73 1058-1620): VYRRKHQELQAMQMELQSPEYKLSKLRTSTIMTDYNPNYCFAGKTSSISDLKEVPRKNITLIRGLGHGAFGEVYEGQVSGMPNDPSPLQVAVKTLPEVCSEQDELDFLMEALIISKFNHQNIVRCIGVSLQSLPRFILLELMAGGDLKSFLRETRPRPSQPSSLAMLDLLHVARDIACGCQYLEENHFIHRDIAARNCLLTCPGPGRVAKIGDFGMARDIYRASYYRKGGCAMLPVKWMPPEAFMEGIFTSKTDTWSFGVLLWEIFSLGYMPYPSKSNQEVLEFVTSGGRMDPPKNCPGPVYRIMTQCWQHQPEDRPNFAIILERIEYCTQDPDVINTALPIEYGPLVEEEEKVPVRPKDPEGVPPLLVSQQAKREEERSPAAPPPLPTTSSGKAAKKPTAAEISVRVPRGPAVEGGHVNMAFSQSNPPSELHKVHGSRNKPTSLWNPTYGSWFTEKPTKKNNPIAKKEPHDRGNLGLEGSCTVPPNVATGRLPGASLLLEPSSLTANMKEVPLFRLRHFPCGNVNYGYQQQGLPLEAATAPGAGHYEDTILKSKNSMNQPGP
Experimental: ALK Inhibition in Enzyme Assay
Kinase activity of the purified protein was assessed using a Lance® TR-FRET assay. […] The reaction was allowed to proceed for 90 minutes at room temperature and was then terminated with 20 mM EDTA in 50 mM Tris (pH 7.5), 100 mM NaCl, 0.05% BSA, and 0.1% Tween-20. Phosphorylation of the peptide substrate was detected using the Lance® detection reagents streptavidin-allophycocyanin (SA-APC) and Eu-W1024 anti-phosphotyrosine antibody (PT66) from Perkin Elmer Life Sciences (Waltham, Mass.). The plates were read on a RUBY star plate reader (BMG LABTECH, Cary, N.C.) with an excitation wavelength of 320 nm.

IC50 | Structure (SMILES)
100 to 1000 nM | COc1ccc(CNC(=O)[C@H]2CCCN(c3ccnc(Nc4cc(OC)c(OC)c(OC)c4)n3)C2)cc1 [Example 15, (S)-N-((4-(methyloxy)phenyl)methyl)-1-(2-((3,4,5-tris(methyloxy)phenyl)amino)-4-pyrimidinyl)-3-piperidinecarboxamide]
5000 to 10000 nM | COc1cc(Nc2nccc(N3CCC[C@@H](C(=O)NCc4ccncc4)C3)n2)cc(OC)c1OC [Example 18, (R)-N-(4-pyridinylmethyl)-1-(2-((3,4,5-trimethoxyphenyl)amino)-4-pyrimidinyl)-3-piperidinecarboxamide]
1000 to 5000 nM | COc1cc(Nc2nccc(N3CCC[C@@H](C(=O)NCc4ccc(F)cc4)C3)n2)cc(OC)c1OC [Example 19, (R)-N-(4-fluorobenzyl)-1-(2-((3,4,5-trimethoxyphenyl)amino)-4-pyrimidinyl)-3-piperidinecarboxamide]
100 to 1000 nM | COc1cc(Nc2nccc(N3CCC[C@H](C(=O)NC(C)c4ccc(Br)cc4)C3)n2)cc(OC)c1OC (stereo partly drawn) [Example 26, (S)-N-(1-(4-bromophenyl)ethyl)-1-(2-((3,4,5-trimethoxyphenyl)amino)-4-pyrimidinyl)-3-piperidinecarboxamide]
100 to 1000 nM | COc1cc(Nc2nccc(N3CCC[C@H](C(=O)N[C@@H](C)c4ccc(Br)cc4)C3)n2)cc(OC)c1OC [Example 27, (S)-N-((S)-1-(4-bromophenyl)ethyl)-1-(2-((3,4,5-trimethoxyphenyl)amino)-4-pyrimidinyl)-3-piperidinecarboxamide]
50 to 100 nM | COc1cc(Nc2nccc(N3CCC[C@H](C(=O)NCc4cc(Cl)ccc4C)C3)n2)cc(OC)c1OC [Example 28, (S)-N-(5-chloro-2-methylbenzyl)-1-(2-((3,4,5-trimethoxyphenyl)amino)-4-pyrimidinyl)-3-piperidinecarboxamide]
50 to 100 nM | COc1cc(Nc2nccc(N3CCC[C@H](C(=O)NCc4ccc(Cl)cc4F)C3)n2)cc(OC)c1OC [Example 29, (S)-N-(4-chloro-2-fluorobenzyl)-1-(2-((3,4,5-trimethoxyphenyl)amino)-4-pyrimidinyl)-3-piperidinecarboxamide]
1000 to 5000 nM | COc1cc(Nc2nccc(N3CCC[C@H](C(=O)NC(c4ccccc4)C(F)(F)F)C3)n2)cc(OC)c1OC (stereo partly drawn) [Example 30, (S)-N-(2,2,2-trifluoro-1-phenylethyl)-1-(2-((3,4,5-trimethoxyphenyl)amino)-4-pyrimidinyl)-3-piperidinecarboxamide]
1000 to 5000 nM | COc1cc(Nc2nccc(N3CCC[C@H](C(=O)NCc4cccc5ccccc45)C3)n2)cc(OC)c1OC [Example 31, (S)-N-(1-naphthalenylmethyl)-1-(2-((3,4,5-trimethoxyphenyl)amino)-4-pyrimidinyl)-3-piperidinecarboxamide]
5000 to 10000 nM | COc1ccccc1CNC(=O)[C@H]1CCCN(c2ccnc(Nc3cc(OC)c(OC)c(OC)c3)n2)C1 [Example 32, (S)-N-(2-methoxybenzyl)-1-(2-((3,4,5-trimethoxyphenyl)amino)-4-pyrimidinyl)-3-piperidinecarboxamide]
50 to 100 nM | COc1cc(Nc2nccc(N3CCC[C@H](C(=O)NCc4ccc(C(F)(F)F)cc4)C3)n2)cc(OC)c1OC [Example 34, (S)-N-(4-(trifluoromethyl)benzyl)-1-(2-((3,4,5-trimethoxyphenyl)amino)-4-pyrimidinyl)-3-piperidinecarboxamide]
5000 to 10000 nM | COc1cc(Nc2nccc(N3CCC[C@H](C(=O)NCc4ccccc4C(F)(F)F)C3)n2)cc(OC)c1OC [Example 37, (S)-N-(2-(trifluoromethyl)benzyl)-1-(2-((3,4,5-trimethoxyphenyl)amino)-4-pyrimidinyl)-3-piperidinecarboxamide]
100 to 1000 nM | COc1cccc(CNC(=O)[C@H]2CCCN(c3ccnc(Nc4cc(OC)c(OC)c(OC)c4)n3)C2)c1 [Example 38, (S)-N-(3-methoxybenzyl)-1-(2-((3,4,5-trimethoxyphenyl)amino)-4-pyrimidinyl)-3-piperidinecarboxamide]
